Experimental data from patent publication US20200261418A1, “HDAC INHIBITOR IN COMBINATION WITH IMMUNE CHECKPOINT MODULATOR FOR CANCER THERAPY” (4SC AG, priority 2017, published 2020).
Like-named read-outs stand apart in the source and are kept apart here.

Assays:
[1] = Food effect dog study, plasma pharmacokinetics; assay type: in vivo, dogs (male Beagle); conditions: approx. 60 mg/kg oral tablets; for AUC: male, Beagle, dog, plasma, po, 60 mg/kg, three dogs, read-out: AUC geometric mean
Protocol: A pharmacokinetic profile for 4SC-202 was determined in an animal study comprising three dogs (male Beagle). To allow for better comparison of the fasted/fed values and eliminate inter-subject variability, each dog first received a first dose of 4SC-202 in the fasted state, and after a wash-out phase of one week, received another dose of 4SC-202 in the fed state. After each respective dose, the plasma pK of 4SC-202 was determined
Before the first dosing, the dogs were fasted overnight and food was returned after the 4 h post-dose blood sampling collections. On each dosing day, the dogs received a single intramuscular injection of freshly prepared Pentagastrin (6 μg/kg and 0.05 mL/kg) 30-33 min prior to oral treatment with approx. 60 mg/kg 4SC-202 (tablet as detailed herein below); for fed animals, these steps were omitted and the dogs received their usual meal approx. 30 min prior to dosing. The number of tablets (4SC-202 tosylate corresponding to 100 mg 4SC-202 free base per tablet) was rounded to the nearest whole tablet based on dose and animal pre-dose body weight. Immediately after dosing the animals received 20 mL of water after oral gavage or were offered 20 mL of water to assist swallowing of the tablets.
Blood samples (1 ml per sample in K2EDTA as anticoagulant) were collected by venipuncture of a peripheral vein and placed on wet ice immediately after collection until centrifugation as 2000*g for 10 min at 2-8° C. to isolate plasma. […]
The concentration of 4SC-202 (free base) in plasma samples was determined by first precipitating the samples with three volume equivalents of acetonitrile containing the internal standard. […]
For the preparation of calibration samples, 4SC-202 tosylate salt was dissolved in dimethylsulfoxide to a concentration of 1.00 mg/mL free base. […] The concentrations were calculated under consideration of purity and salt factor where applicable. All concentrations are expressed as those of the free base. […] The concentration was calculated under consideration of purity and salt factor. […]

CT26 cells = test: Preclinical murine in vivo tumor model, CT26; set-up: species or system female Balb/c mice; conditions: CT26 model (FIG. 2); anti-PD-L1 10 mg/kg IP; 4SC-202 at 20 mg/kg PO alone or combined
Protocol: (§1) In vivo murine tumor models were conducted with a combination of 4SC-202 and murine anti-PD-1 and anti-PD-L1 antibodies, respectively. 1×10^6 CT26 cells or 30-50 mg C38 tumor fragments (both […] colon carcinoma cell lines) were subcutaneous implantation into the right flank of female C57Bl/6 (C38 tumor fragments) or Balb/c (CT26 cells) mice, respectively, at day 0 of the experiment.
Protocol CT26: At D7, when tumors reached a mean volume of 73±21 mm^3, 80 mice out of 104, were randomized according to their individual tumor volume into 4 groups of 20 mice each. […]
(§2) Monitoring of mice body weights and tumor volume twice a week. […] Tumor width and length were measured using a digital caliper twice a week and estimated tumor volumes were calculated from measured tumor length and width using the formula Estimated tumor volume=width^2×length/2. […]

[2] = system: heavily pre-treated patients with different types of blood cancer; conditions: cited from earlier work
C38 tumor fragments = test: Preclinical murine in vivo tumor model, C38; set-up: species or system female C57Bl/6 mice; conditions: C38 model (FIG. 1); anti-PD1 10 mg/kg IP; 4SC-202 at 20 mg/kg PO alone or combined
Protocol: as §1
Protocol C38: At D10, when tumors reached a mean volume of 142±27 mm^3, 160 mice out of 224, were randomized according to their individual tumor volume into 8 groups of 20 mice each. […]
as §2

[3] = Handling of 4SC-202 tosylate calibration solutions (light stability); assay type: physicochemical; conditions: solutions in dimethylsulfoxide and dimethylsulfoxide/acetonitrile
Protocol: For the preparation of calibration samples, 4SC-202 tosylate salt was dissolved in dimethylsulfoxide to a concentration of 1.00 mg/mL free base. For the preparation of QC samples, a second solution with a concentration of 1.00 mg/mL free base was used. Working solutions were prepared by serial dilutions in a mixture of dimethylsulfoxide/acetonitrile (50/50, v/v) to concentrations 50 times higher than the corresponding concentrations in matrix. The concentrations were calculated under consideration of purity and salt factor where applicable. All concentrations are expressed as those of the free base. […] The concentrations of the calibration are (ng/mL): 1.00, 2.00, 5.00, 20.00, 100, 500, 750, 1000. The concentrations of the QC are (ng/mL): 13.00, 20.00, 750 For preparation of the CAL and QC, the matrix was fortified with the working solutions using a ratio of 98/2 (v/v). For the preparation of the internal standard solution, 4SC-201-d6 mesylate salt was dissolved in dimethylsulfoxide to a concentration of 1.00 mg/mL of the free base. Further dilutions to a final concentration of 100 ng/mL were done in acetonitrile. The concentration was calculated under consideration of purity and salt factor.

Row | AUC increase of the fed state over the fasted state ([1]; dogs) | AUC ([1]; fasted) [ng·h/mL] | AUC ([1]; fed) [ng·h/mL] | light stability of solutions [3] | SMILES | anti-tumor activity compared to mice treated with vehicle (CT26 cells) | tolerability (adverse events) ([2]; 24 heavily pre-treated patients, few and/or manageable adverse events) | disease control, share of patients ([2]; 24 patients) [%] | long-term stabilization, share of patients ([2]; 24 patients) [%] | complete remission, duration ([2]; one complete remission among 24 patients) [months] | partial responder, duration ([2]; one partial responder among 24 patients) [months] | anti-tumor activity compared to mice treated with vehicle (C38 tumor fragments)
1 | about 3.5 fold | 3980 | 13900 | – | Cn1cc(-c2ccc(S(=O)(=O)n3ccc(/C=C/C(=O)Nc4ccccc4N)c3)cc2)cn1 [Compound 4SC-202, (E)-N-(2-aminophenyl)-3-(1-((4-(1-methyl-1H-pyrazol-4-yl)phenyl)sulfonyl)-1H-pyrrol-3-yl)acrylamide] | increase of the antitumor activity | well tolerated | 83 | 50 | 28 | 8 | increase of the antitumor activity
2 | – | – | – | light instability | Cc1ccc(S(=O)(=O)O)cc1.Cn1cc(-c2ccc(S(=O)(=O)n3ccc(/C=C/C(=O)Nc4ccccc4N)c3)cc2)cn1 [4SC-202 tosylate salt] | – | – | – | – | – | – | –
